From PubChem BioAssay (NCI) come the findings set out here.

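How tested: cells in 96-well plates exposed to compound for 48 hours at five concentrations. GI50 marks 50% less growth. TGI marks complete inhibition of growth.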

What all share (assay): NCI anticancer screen, dose series, 48 h
The subject of assay [1] is HS 578T breast.
Assay [2] relates to MALME-3M melanoma.
The subject of assay [3] is MOLT-4 leukemia.
Assay [4] deals with OVCAR-4 ovarian.
The subject of assay [5] is OVCAR-5 ovarian.
Assay [6] has as its system OVCAR-8 ovarian.
The test system of assay [7] is RPMI-8226 leukemia.
Assay [8] deals with SF-539 CNS.
Assay [9] deals with TK-10 renal.
Assay [10] relates to MDA-MB-435.

Turning to `O=C(COc1cc(=O)oc2ccccc12)c1ccccc1`, the TGI in assay [1] is 73.7 µM; in [2] it was above 100 µM; in assay [3], above 100 µM; in assay [4], above 100 µM; in assay [5], above 100 µM; in assay [6], 93.8 µM. Besides, the TGI in [7] is above 100 µM; in [8] it was 58.7 µM; in assay [9], above 100 µM.
Take `CCC1c2[nH]c3ccccc3c2C[C@H]2C(=O)NC(C)C(=O)N12` (stereo partly specified): the TGI in assay [1], in [2], in assay [10], in assay [3], in assay [4] and in assay [5] was above 100 µM in each case. Also, the TGI in [6], in [7] and in assay [9] was above 100 µM in each case.
On to `CC(C)(C)OC(=O)NC(CSCc1ccc(C(=O)c2ccccc2)cc1)C(=O)N1CCN(CCCCN2c3ccccc3Sc3cc(N=[N+]=[N-])ccc32)CC1` (stereo unspecified), for which the TGI in assay [1], in assay [2], in [10], in assay [3], in [4] and in [5] was above 100 µM in each case. Besides, the TGI in assay [6], in assay [8] and in assay [9] was above 100 µM each time.
On to `COc1cc(/C=C/C(=O)CC(=O)/C=C/c2cc(C)c(O)c(OC)c2)cc(C)c1O`, for which the TGI in assay [1], in assay [2], in assay [10], in [3], in assay [4] and in assay [5] was above 100 µM in each case. Moreover, the TGI in [6], in [7] and in [8] was above 100 µM in each case.
For `COc1cc(/C=C2\C(=O)N(c3cccc(NC(C)=O)c3)C(c3ccccc3)S2(=O)=O)cc(OC)c1OC` (stereo unspecified), the TGI was above 100 µM in [2]; above 100 µM in assay [10]; 86.3 µM in assay [3]; above 100 µM in assay [4]; above 100 µM in assay [5]; above 100 µM in assay [6]. The TGI in [7], in [8] and in assay [9] was above 100 µM in each case.
Turning to `CC1=NNC(=O)C1C1(C(=O)O)CC(c2c[nH]c3ccccc23)=NC(=S)N1` (stereo unspecified), the TGI is 47.7 µM in assay [1]; 74.3 µM in assay [2]; above 100 µM in assay [10]; 52.7 µM in [3]; above 100 µM in assay [5]; above 100 µM in assay [6]. Further, the figures for the TGI in [7], in [8] and in [9] were 84.5 µM, 67.9 µM and above 100 µM, respectively.
Consider `CCC(C)C(Nc1c2ccccc2nc2c(C(=O)NCCN(C)C)cccc12)C(=O)O` (stereo unspecified), for which the TGI is 51.6 µM in assay [1]; 35.1 µM in assay [2]; 41.9 µM in [10]; above 100 µM in assay [3]; 25.8 µM in assay [4]; above 100 µM in assay [5]. Besides, the TGI in assay [6], in assay [7] and in assay [9] was above 100 µM throughout.
On to `NCCCn1c(Cl)nc2ccccc21`, for which the TGI in assay [1], in assay [2], in [10], in [3], in assay [4] and in assay [5] was above 100 µM in each case. The TGI in assay [6] and in [7] was above 100 µM each time.
Regarding `COc1cc(/C=C/c2ccc(OC)c(OC)c2)oc(=O)c1`, the TGI in [2] is above 250 µM; in assay [3], above 250 µM; in assay [4], above 250 µM; in assay [5] it was above 250 µM; in [6], above 11.6 µM; in assay [7], above 250 µM. Besides, the TGI in assay [8] is above 250 µM.
For the molecule `COC(=O)c1ccc(OCCn2nnc(C(=O)NN)c2C(=O)NN)cc1`, the TGI in assay [2], in [10], in [3], in [4], in [5] and in assay [6] was above 100 µM each time. In addition, the TGI in assay [7] and in [9] was above 100 µM each time.
In the case of `CC(=O)OCC1OC(n2c(C)c(C)cc(C#N)c2=S)C(OC(C)=O)C(OC(C)=O)C1OC(C)=O` (stereo unspecified), the TGI in [1], in [2], in assay [3], in assay [4], in assay [5] and in assay [6] was above 100 µM throughout. Also, the TGI in assay [7], in assay [8] and in assay [9] was above 100 µM throughout.
On to `CCC1(CC)C(=O)NC(=O)NC1=S`, for which the TGI in assay [2], in assay [3], in assay [4], in assay [5], in [6] and in [7] was above 100 µM in each case. For the same molecule, the TGI in assay [8] and in assay [9] was above 100 µM in each case.
`CCC1(O)C(=O)OCc2c1cc1n(c2=O)Cc2cc3cc4c(cc3nc2-1)OCO4` (stereo unspecified): the TGI in assay [1] was above 100 µM; in assay [2], 0.807 µM; in [10] it was 9.1 µM; in [3], 0.178 µM; in assay [4], 1.49 µM; in assay [5] it was 0.693 µM. Besides, the TGI in assay [6] is 1.29 µM; in [7], 7 µM; in assay [9], 37.3 µM.
For `O=C1c2c(c3c4cc(F)ccc4oc3c3[nH]c4ccccc4c23)C(=O)N1O`, the GI50 in assay [1] was 2.53 µM; in assay [2], 1.37 µM; in assay [10] it was 3.02 µM; in assay [4], 4.82 µM; in assay [5] it was 38.2 µM; in [6], 1.82 µM. For the same molecule, the GI50 in assay [7] was 1.22 µM; in assay [8], 1.6 µM; in assay [9], 12 µM. The TGI in [1] was 9.59 µM; in assay [2], 6.46 µM; in assay [10], above 100 µM; in assay [4], above 100 µM; in assay [5], above 100 µM; in [6], above 100 µM. The values for the TGI in assay [7], in assay [8] and in assay [9] were 7.31 µM, 9.09 µM and 53.4 µM, respectively.
Consider `CC1[C@@]2(O[C@@H]3C=C4C5CCC6Cc7nc8c(nc7C[C@@]6(C)C5C[C@H](O)[C@@]4(C)[C@]13O)CC1CCc3c(cc4c5c3C(O)C[C@H]5[C@@H](C)C3(O4)OC(C)(C)CC3O)[C@]1(C)C8)O[C@@](C)(CO)C[C@@H]2O` (stereo partly specified), for which the TGI in assay [2] was 2.22 µM; in assay [5] it was 1.48 µM; in [6], above 3.72 µM; in assay [7] it was 0.21 µM; in [8] it was above 3.72 µM.
Regarding `COc1ccc(N2C(=O)C3ON(Cc4ccc(CC(N)=O)cc4)C(c4c5ccccc5c(C)c5ccccc45)C3C2=O)cc1` (stereo unspecified), the TGI in [1] is above 100 µM; in [2] it was above 100 µM; in assay [10] it was above 100 µM; in assay [3], 6.41 µM; in assay [4], 96.5 µM; in assay [5], 83.8 µM. The TGI was above 100 µM in [6] and 47.8 µM in assay [9].
`CC(O)C(CO)NC(=O)C1CSSCC(NC(=O)C(N)Cc2ccccc2)C(=O)NC(Cc2ccccc2)C(=O)NC(Cc2c[nH]c3ccccc23)C(=O)NC(CCCCN)C(=O)NC(C(C)O)C(=O)N1` (stereo unspecified): the TGI in [2], in [10], in [3], in [4], in assay [5] and in assay [6] was above 100 µM in each case. Moreover, the TGI in [7], in [8] and in assay [9] was above 100 µM in each case.
For `COc1ccc(C2CC(c3sc(Nc4ccc(C)cc4)nc3C)=NN2)cc1` (stereo unspecified), the TGI was found to be 32.7 µM in [3]; 18.3 µM in assay [4]; 39.2 µM in assay [5]; 35.9 µM in [6]; 41.4 µM in assay [7]; 29 µM in assay [8].
With `O=C(Nc1ccccc1C(=O)NCc1ccccc1)/C(=C/c1ccccc1O)NC(=O)c1ccccc1`, the TGI in [1], in [10], in [3], in [5], in assay [6] and in [7] was above 100 µM each time. Besides, the TGI in assay [8] and in assay [9] was above 100 µM each time.
Take `CN(C)CCNC(=O)c1cccc2c1C(=O)c1ccccc1C2=O`: the TGI is 28.1 µM in assay [2]; above 71.7 µM in assay [3]; 88.8 µM in assay [4]; above 100 µM in assay [5]; 88.3 µM in assay [6]; above 100 µM in assay [7]. The molecule also yielded a TGI in assay [8] above 100 µM.
In the case of `Nc1nnc(N)n1N`, the TGI in assay [2], in assay [3], in assay [4], in [5], in [7] and in [8] was above 100 µM in each case. This molecule gave a TGI in assay [9] above 100 µM.
Take `COc1c(C(=O)/C(=N/Nc2ccc(C(=O)O)cc2)C(C)=O)c(O)cc2occc12`: the TGI in assay [1], in assay [2], in assay [10], in assay [3], in [5] and in assay [6] was above 100 µM throughout. Moreover, the TGI in [7], in [8] and in assay [9] was above 100 µM throughout.
For `CCOC(CBr)OC1C(=O)OCC1(C)C` (stereo unspecified), the TGI in assay [1], in assay [2], in assay [10], in [3], in assay [4] and in assay [5] was above 100 µM each time. Further, the TGI in assay [6], in assay [7] and in assay [9] was above 100 µM each time.
In the case of `CC(C)CC1c2[nH]c3ccccc3c2C[C@H]2C(=O)NC(Cc3c[nH]c4ccccc34)C(=O)N12` (stereo partly specified), the TGI in assay [1] came out at 26.2 µM; in [2] it was 28 µM; in [10], 34.4 µM; in assay [3], 39.1 µM; in assay [4] it was 63.8 µM; in assay [5], 48 µM. Besides, the TGI in assay [6] worked out at 39 µM; in assay [7] it was 48.7 µM; in assay [9] it was 24.5 µM.
As for `CCOC(=O)NC(Nc1ccc(F)cc1F)(C(F)(F)F)C(F)(F)F`, the TGI in [1], in assay [2], in assay [10], in assay [3], in assay [5] and in assay [6] was above 100 µM each time. Moreover, the TGI in assay [7], in assay [8] and in [9] was above 100 µM each time.
`O=C1C=C(NCCc2ccc(O)c([N+](=O)[O-])c2)C(=O)c2[nH]cnc21`: the TGI was above 100 µM in [1]; 17.6 µM in assay [2]; 33.7 µM in assay [10]; 38.2 µM in assay [3]; above 100 µM in [5]; 68.7 µM in assay [6]. Further, the TGI in assay [7] was above 100 µM; in assay [8], 90.5 µM; in assay [9] it was above 100 µM.
For `O=[N+]([O-])c1ccc(C[P+]2(c3ccccc3)CCCCC2)cc1` (tested in a mixture with another compound), the TGI in assay [2], in [3], in assay [4], in assay [5], in [6] and in [7] was above 100 µM in each case. The TGI in [8] and in [9] was above 100 µM throughout.
With `O=C(CC(C(=O)c1ccsc1)c1cccs1)c1ccccc1` (stereo unspecified), the TGI in [1] was above 100 µM; in [10], above 100 µM; in assay [3], above 100 µM; in assay [4] it was 67.3 µM; in assay [5] it was above 100 µM; in [6] it was above 100 µM. Also, the TGI in assay [7], in [8] and in assay [9] was above 100 µM each time.
With `O=C(Cn1c2ccc(Br)cc2c2nc3ccccc3nc21)NCc1ccccc1`, the TGI in [1] is 92.4 µM; in [2] it was above 100 µM; in assay [10], above 100 µM; in assay [3] it was above 100 µM; in assay [4], above 100 µM; in assay [5], above 100 µM. Moreover, the TGI in [6] is above 100 µM; in assay [7], above 100 µM; in [9], 49.5 µM.
